Measured values as given in PubChem BioAssay (NCI).
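Results reflect a 48-hour exposure of cells in 96-well plates to compound at five concentrations. GI50 is the concentration that inhibits growth by half. TGI is the concentration that stops growth completely.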

Legend:
Test in all cases: growth of human tumour cells (NCI), 48 h
A498 renal = system: A498 renal
SF-268 CNS = system: SF-268 CNS
SK-MEL-28 melanoma = system: SK-MEL-28 melanoma
ACHN renal = system: ACHN renal
MCF7 breast = system: MCF7 breast
RXF 393 renal = system: RXF 393 renal
MALME-3M melanoma = system: MALME-3M melanoma
SNB-19 CNS = system: SNB-19 CNS
KM12 colon = system: KM12 colon
UACC-257 melanoma = system: UACC-257 melanoma
HT29 colon = system: HT29 colon
SK-MEL-2 melanoma = system: SK-MEL-2 melanoma
HL-60(TB) leukemia = system: HL-60(TB) leukemia
CCRF-CEM leukemia = system: CCRF-CEM leukemia
HOP-92 NSCLC = system: HOP-92 NSCLC
HCT-116 colon = system: HCT-116 colon
MDA-MB-435 = system: MDA-MB-435
OVCAR-4 ovarian = system: OVCAR-4 ovarian
K-562 leukemia = system: K-562 leukemia
UO-31 renal = system: UO-31 renal
BT-549 breast = system: BT-549 breast
HCT-15 colon = system: HCT-15 colon
OVCAR-3 ovarian = system: OVCAR-3 ovarian
SF-295 CNS = system: SF-295 CNS
SN12C renal = system: SN12C renal
MOLT-4 leukemia = system: MOLT-4 leukemia
EKVX NSCLC = system: EKVX NSCLC
SW-620 colon = system: SW-620 colon
HOP-62 NSCLC = system: HOP-62 NSCLC
U251 CNS = system: U251 CNS
T-47D breast = system: T-47D breast
OVCAR-8 ovarian = system: OVCAR-8 ovarian
SK-OV-3 ovarian = system: SK-OV-3 ovarian
COLO 205 colon = system: COLO 205 colon
MDA-MB-231 breast = system: MDA-MB-231 breast
HS 578T breast = system: HS 578T breast
RPMI-8226 leukemia = system: RPMI-8226 leukemia
DU-145 prostate = system: DU-145 prostate
IGROV1 ovarian = system: IGROV1 ovarian
NCI-H23 lung = system: NCI-H23 lung
NCI-H226 lung = system: NCI-H226 lung
NCI/ADR-RES ovarian = system: NCI/ADR-RES ovarian
SR leukemia = system: SR leukemia
NCI-H460 lung = system: NCI-H460 lung
CAKI-1 renal = system: CAKI-1 renal
SF-539 CNS = system: SF-539 CNS
UACC-62 melanoma = system: UACC-62 melanoma
SNB-75 CNS = system: SNB-75 CNS
786-0 renal = system: 786-0 renal
A549 NSCLC = system: A549 NSCLC
LOX IMVI melanoma = system: LOX IMVI melanoma
PC-3 prostate = system: PC-3 prostate
SK-MEL-5 melanoma = system: SK-MEL-5 melanoma
TK-10 renal = system: TK-10 renal
NCI-H522 lung = system: NCI-H522 lung
M14 melanoma = system: M14 melanoma
HCC-2998 colon = system: HCC-2998 colon
OVCAR-5 ovarian = system: OVCAR-5 ovarian

CCN(CC)CCOc1ccc(/C=C2\CC3C4CC=C5C[C@@H](N6CCCC6)CC[C@]5(C)C4CC[C@]3(C)[C@H]2OC(C)=O)cc1OC (stereo partly specified)
GI50 (A498 renal): 1.96 µM
TGI (A498 renal): 3.46 µM
GI50 (SF-268 CNS): 1.86 µM
TGI (SF-268 CNS): 4.56 µM
GI50 (SK-MEL-28 melanoma): 1.71 µM
TGI (SK-MEL-28 melanoma): 3.56 µM
GI50 (ACHN renal): 0.791 µM
TGI (ACHN renal): 1.56 µM
GI50 (MCF7 breast): 1.21 µM
GI50 (RXF 393 renal): 0.815 µM
TGI (RXF 393 renal): 2.77 µM
GI50 (MALME-3M melanoma): 0.579 µM
TGI (MALME-3M melanoma): 1.24 µM
GI50 (SNB-19 CNS): 0.698 µM
TGI (SNB-19 CNS): 3.47 µM
GI50 (KM12 colon): 0.0997 µM
TGI (KM12 colon): 1.16 µM
GI50 (UACC-257 melanoma): 1.91 µM
TGI (UACC-257 melanoma): 3.92 µM
GI50 (HT29 colon): 0.144 µM
TGI (HT29 colon): > 44.1 µM
GI50 (SK-MEL-2 melanoma): 3.45 µM
TGI (SK-MEL-2 melanoma): > 100 µM
GI50 (HL-60(TB) leukemia): 0.639 µM
TGI (HL-60(TB) leukemia): 1.77 µM
GI50 (CCRF-CEM leukemia): 0.197 µM
TGI (CCRF-CEM leukemia): 0.457 µM
GI50 (HOP-92 NSCLC): 0.152 µM
TGI (HOP-92 NSCLC): 1.88 µM
GI50 (HCT-116 colon): 0.132 µM
TGI (HCT-116 colon): 0.548 µM
GI50 (MDA-MB-435): 0.277 µM
TGI (MDA-MB-435): 0.745 µM
GI50 (OVCAR-4 ovarian): 2.14 µM
TGI (OVCAR-4 ovarian): 5.65 µM
TGI (K-562 leukemia): > 36 µM
GI50 (UO-31 renal): 2.28 µM
GI50 (BT-549 breast): 1.8 µM
TGI (BT-549 breast): 3.52 µM
GI50 (HCT-15 colon): 1.08 µM
TGI (HCT-15 colon): 2.45 µM
GI50 (OVCAR-3 ovarian): 0.773 µM
TGI (OVCAR-3 ovarian): 1.84 µM
GI50 (SF-295 CNS): 1.55 µM
TGI (SF-295 CNS): 2.95 µM
GI50 (SN12C renal): 1.19 µM
TGI (SN12C renal): 2.64 µM
GI50 (MOLT-4 leukemia): 0.091 µM
TGI (MOLT-4 leukemia): 0.345 µM
GI50 (EKVX NSCLC): 1.59 µM
TGI (EKVX NSCLC): 3.47 µM
GI50 (SW-620 colon): 0.555 µM
TGI (SW-620 colon): 1.92 µM
GI50 (HOP-62 NSCLC): 0.899 µM
TGI (HOP-62 NSCLC): 2.27 µM
GI50 (U251 CNS): 1.18 µM
TGI (U251 CNS): 2.44 µM
GI50 (T-47D breast): 1.03 µM
TGI (T-47D breast): 2.21 µM
GI50 (OVCAR-8 ovarian): 1.07 µM
TGI (OVCAR-8 ovarian): 3.47 µM
GI50 (SK-OV-3 ovarian): 2.4 µM
TGI (SK-OV-3 ovarian): 6.06 µM
GI50 (COLO 205 colon): 2.04 µM
TGI (COLO 205 colon): 4.28 µM
GI50 (MDA-MB-231 breast): 1.73 µM
TGI (MDA-MB-231 breast): 3.25 µM
GI50 (HS 578T breast): 1.03 µM
TGI (HS 578T breast): 2.32 µM
GI50 (RPMI-8226 leukemia): 0.124 µM
TGI (RPMI-8226 leukemia): 5.24 µM
GI50 (DU-145 prostate): 1.05 µM
TGI (DU-145 prostate): 6.07 µM
TGI (IGROV1 ovarian): 1.73 µM
GI50 (NCI-H23 lung): 1.63 µM
TGI (NCI-H23 lung): 3.32 µM
GI50 (NCI-H226 lung): 1.26 µM
TGI (NCI-H226 lung): 3.3 µM
GI50 (NCI/ADR-RES ovarian): 0.57 µM
TGI (NCI/ADR-RES ovarian): 1.93 µM
GI50 (SR leukemia): 0.191 µM
TGI (SR leukemia): 0.444 µM
GI50 (NCI-H460 lung): 1.6 µM
TGI (NCI-H460 lung): 4.46 µM
GI50 (CAKI-1 renal): 1.25 µM
TGI (CAKI-1 renal): 2.99 µM
GI50 (SF-539 CNS): 0.597 µM
TGI (SF-539 CNS): 1.2 µM
GI50 (UACC-62 melanoma): 0.715 µM
TGI (UACC-62 melanoma): 1.41 µM
GI50 (SNB-75 CNS): 2.21 µM
TGI (SNB-75 CNS): 5.1 µM
GI50 (786-0 renal): 0.635 µM
TGI (786-0 renal): 1.3 µM
GI50 (A549 NSCLC): 1.64 µM
TGI (A549 NSCLC): 3.67 µM
GI50 (LOX IMVI melanoma): 1.03 µM
TGI (LOX IMVI melanoma): 2.4 µM
GI50 (PC-3 prostate): 1.13 µM
TGI (PC-3 prostate): 2.51 µM
GI50 (SK-MEL-5 melanoma): 0.72 µM
TGI (SK-MEL-5 melanoma): 1.39 µM
GI50 (TK-10 renal): 1.24 µM
TGI (TK-10 renal): 2.67 µM
GI50 (NCI-H522 lung): 2.35 µM
GI50 (M14 melanoma): 0.133 µM
TGI (M14 melanoma): 0.217 µM
GI50 (HCC-2998 colon): 0.197 µM
TGI (HCC-2998 colon): 0.647 µM
GI50 (OVCAR-5 ovarian): 1.39 µM
TGI (OVCAR-5 ovarian): 3.06 µM
